What was measured:
[1] = tested on: T47D (PIK3CA H1047R) cells; test: pS473 AKT assay in T47D cells; assay type: cell-based; details: Homo sapiens, pSer473 AKT, 2 h treatment, read-out: T47D_IC50
Protocol: (§1) SKBR3 (PIK3CA WT), MCF7 (PIK3CA E545K), and T47D (PIK3CA H1047R) cells were cultured using 10-cm petri dishes with recommended medium. One day before the assay, cells were seeded in 96-well plates. After overnight incubation, cells were treated with different concentrations of PI3Kα inhibitors for 2 h. Cells were then fixed using 4% paraformaldehyde at room temperature for 20 min. Cells were aspirated with 4% paraformaldehyde, and washed using 1× regular phosphate buffered saline 3 times, 5 min each. Any residual phosphate buffered saline was aspirated and cells were blocked using 10% goat serum containing 1% bovine serum albumin and 0.3% Triton X-100 at room temperature for 1 h. Without any additional washing, primary antibodies (rabbit anti-pSer473 AKT) were diluted using blocking buffer and added at a final volume of 50 microliter per well. Assay plates with primary antibodies were maintained overnight at 4° C. Cells were washed using 1× regular phosphate buffered saline 3 times, 5 min each. After the final wash, cells were incubated with horseradish peroxidase-conjugated secondary antibodies (goat Anti-rabbit IgG) and diluted using the same blocking buffer at room temperature for 1 h. Cells were then washed thoroughly using 1× regular phosphate buffered saline 3 times, 5 min each, and any residual phosphate buffered saline was aspirated. Super-Signal ELISA Pico Chemiluminescent Substrate was then added at a final volume of 100 microliter per well. Plates were read on a i3× Multi-Mode Microplate Reader and IC50 values calculated using GraphPad Prism software.
(§2) Results of the assay described above are presented in Table A. “++++” indicates an IC50 less than 1000 nM; “+++” indicates an IC50 greater than or equal to 1000 nM but less than 5000 nM; “++” indicates an IC50 greater than or equal to 5000 nM but less than 10000 nM; and “+” indicates an IC50 greater than or equal to 10000 nM.

SKBR3 (PIK3CA WT) cells = test: pS473 AKT assay in SKBR3 cells; assay type: cell-based; details: Homo sapiens, SK-BR-3, pSer473 AKT, 2 h treatment, read-out: SKBR3_IC50
Protocol: as §1, §2

Row | IC50 [1] [nM] | IC50 (SKBR3 (PIK3CA WT) cells) [nM] | Compound
1 | < 1000 | ≥ 10000 | Cc1cc(C(C)Nc2ccccc2C(=O)O)c2nc(N3CCC(C)(C)CC3)n3ccnc3c2c1 (stereo not drawn) [Example 1, 2-((1-(5-(4,4-Dimethylpiperidin-1-yl)-9-methylimidazo[1,2-c]quinazolin-7-yl)ethyl)amino)benzoic acid]
2 | < 1000 | ≥ 10000 | Cc1cc(C(C)Nc2ccccc2C(=O)O)c2nc(N3Cc4ccccc4C3)n3ccnc3c2c1 (stereo not drawn) [Example 2, 2-((1-(5-(Isoindolin-2-yl)-9-methylimidazo[1,2-c]quinazolin-7-yl)ethyl)amino)benzoic acid]
3 | < 1000 | ≥ 10000 | Cc1cc(C(C)Nc2ccccc2C(=O)O)c2nc(N3CCC(C)(C)CC3)n3ncnc3c2c1 (stereo not drawn) [Example 3, 2-((1-(5-(4,4-Dimethylpiperidin-1-yl)-9-methyl-[1,2,4]triazolo[1,5-c]quinazolin-7-yl)ethyl)amino)benzoic acid]
4 | < 1000 | ≥ 10000 | Cc1cc(C(C)Nc2ccccc2C(=O)O)c2nc(N3CCC(C)(C)CC3)n3cnnc3c2c1 (stereo not drawn) [Example 4, 2-((1-(5-(4,4-Dimethylpiperidin-1-yl)-9-methyl-[1,2,4]triazolo[4,3-c]quinazolin-7-yl)ethyl)amino)benzoic acid]
5 | < 1000 | ≥ 10000 | Cc1cc(C(C)Nc2ccccc2C(=O)O)c2nc(N3Cc4ccccc4C3)n3cnnc3c2c1 (stereo not drawn) [Example 5, 2-((1-(5-(Isoindolin-2-yl)-9-methyl-[1,2,4]triazolo[4,3-c]quinazolin-7-yl)ethyl)amino)benzoic acid]
6 | < 1000 | ≥ 10000 | Cc1cc(C(C)Nc2ccccc2C(=O)O)c2nc(N3CCC(C)(C)C3)n3cnnc3c2c1 (stereo not drawn) [Example 6, 2-((1-(5-(3,3-Dimethylpyrrolidin-1-yl)-9-methyl-[1,2,4]triazolo[4,3-c]quinazolin-7-yl)ethyl)amino)benzoic acid]
7 | < 1000 | ≥ 10000 | Cc1cc(C(C)Nc2ccccc2C(=O)O)c2nc(N3CC(C)(C)C3)n3cnnc3c2c1 (stereo not drawn) [Example 7, 2-((1-(5-(3,3-Dimethylazetidin-1-yl)-9-methyl-[1,2,4]triazolo[4,3-c]quinazolin-7-yl)ethyl)amino)benzoic acid]
8 | 1000 to 5000 | ≥ 10000 | Cc1cc(C(C)Nc2ccccc2C(=O)O)c2nc(N3CCC(C)(C)CC3)n3nnnc3c2c1 (stereo not drawn) [Example 8, 2-((1-(5-(4,4-dimethylpiperidin-1-yl)-9-methyltetrazolo[1,5-c]quinazolin-7-yl)ethyl)amino)benzoic acid]
9 | < 1000 |  | Cc1cc(C(C)Nc2ccccc2C(=O)O)c2nc(-c3cccc(C#N)c3)n3cnnc3c2c1 (stereo not drawn) [Example 9, 2-((1-(5-(3-Cyanophenyl)-9-methyl-[1,2,4]triazolo[4,3-c]quinazolin-7-yl)ethyl)amino)benzoic acid]
10 | < 1000 |  | Cc1cc(C(C)Nc2ccc(Cl)nc2C(=O)O)c2nc(-c3cccc(C#N)c3)n3cnnc3c2c1 (stereo not drawn) [Example 10, 6-Chloro-3-((1-(5-(3-cyanophenyl)-9-methyl-[1,2,4]triazolo[4,3-c]quinazolin-7-yl)ethyl)amino)picolinic acid]
11 | < 1000 |  | Cc1cc(C(C)Nc2ccccc2C(=O)O)c2nc(-c3cc(F)cc(F)c3)n3cnnc3c2c1 (stereo not drawn) [Example 11, 2-((1-(5-(3,5-Difluorophenyl)-9-methyl-[1,2,4]triazolo[4,3-c]quinazolin-7-yl)ethyl)amino)benzoic acid]
12 | 1000 to 5000 |  | CCc1ncn2c3c(C(C)Nc4ccc(C)nc4C(=O)O)cc(C)cc3c3nncn3c12 (stereo not drawn) [Example 12, 3-((1-(5-Ethyl-11-methylimidazo[1,5-a][1,2,4]triazolo[4,3-c]quinazolin-9-yl)ethyl)amino)-6-methylpicolinic acid]
13 | < 1000 |  | Cc1cc(C(C)Nc2ccc(Cl)nc2-c2ccncc2)c2nc(N3CCC(C)(C)CC3)n3cnnc3c2c1 (stereo not drawn) [Example 13, 6-Chloro-N-(1-(5-(4,4-dimethylpiperidin-1-yl)-9-methyl-[1,2,4]triazolo[4,3-c]quinazolin-7-yl)ethyl)-[2,4′-bipyridin]-3-amine]
14 | < 1000 |  | CNC(=O)c1ccc(-c2nc(Cl)ccc2NC(C)c2cc(C)cc3c2nc(N2CCC(C)(C)CC2)n2cnnc32)cn1 (stereo not drawn) [Example 14, 6-Chloro-3-((1-(5-(4,4-dimethylpiperidin-1-yl)-9-methyl-[1,2,4]triazolo[4,3-c]quinazolin-7-yl)ethyl)amino)-N-methyl-[2,3′-bipyridine]-6′-carboxamide]
15 | < 1000 |  | Cc1cc(C(C)Nc2ccc(Cl)nc2-c2cnn(C)c2)c2nc(N3CCN(C)CC3)n3cnnc3c2c1 (stereo not drawn) [Example 15, 6-Chloro-2-(1-methyl-1H-pyrazol-4-yl)-N-(1-(9-methyl-5-(4-methylpiperazin-1-yl)-[1,2,4]triazolo[4,3-c]quinazolin-7-yl)ethyl)pyridin-3-amine]
16 | < 1000 |  | Cc1cc(C(C)Nc2ccc(Cl)nc2-c2ccnn2C)c2nc(N3CCN(C)CC3)n3cnnc3c2c1 (stereo not drawn) [Example 16, 6-Chloro-2-(1-methyl-1H-pyrazol-5-yl)-N-(1-(9-methyl-5-(4-methylpiperazin-1-yl)-[1,2,4]triazolo[4,3-c]quinazolin-7-yl)ethyl)pyridin-3-amine]

Source: patent US20250346603A1, “TRICYCLIC COMPOUNDS AS PI3KALPHA INHIBITORS” (Pikavation Therapeutics, Inc., priority 2022, published 2025)
